Experimental data reported in a melting point compilation (Tetko et al.; mined from patent text by program, amines drawn as free bases though some values may be those of a salt).

First: O=C1CCC(c2ccccc2)(c2ccccc2)C2CN(C(Cc3ccccc3)=NCCc3ccccc3)CC12 (stereo unspecified)
Second: COc1ccccc1NC(=O)Nc1nc(Nc2ccccc2-c2ccccc2)nc(N(CCC(=O)O)CCc2ccccn2)n1
The melting point of the first is lower: 188 °C for the first, 225 to 227 °C for the second.

First: CCCCC(=O)N[C@H]1CC[C@H](CCN2CCN(c3nccc4c3CCO4)CC2)CC1
Second: CCCCCCCNC(=O)Nc1ccccc1C(=O)N1CCN(c2ccccc2OC)CC1
The melting point of the first is lower: 180 °C for the first, 209 to 212 °C for the second.

Compared with `CCn1cc(C(c2ccc(Cl)cc2Cl)n2cncn2)c2cc(Br)ccc21` (stereo unspecified), `COc1cc2cc3ncc(C#N)c(Nc4ccc(Cl)cc4Cl)c3cc2cc1OC` is higher in melting point: 124 to 126 °C for the first, 271 to 273 °C for the second.

Compared with `COC(=O)c1ccc2c(c1)C(=O)N(c1ccccc1)C2=O`, `COC(=O)c1ccccc1NCCCc1ccccc1` is lower in melting point: 200 to 207 °C for the first, 103 to 105 °C for the second.

Compared with `OCC1OC(n2c(Cl)nc3c(Cl)cc(Cl)cc32)C(O)C1O` (stereo unspecified), `Cc1nc2c3c(ccc2n1C1CC1)C(=O)[C@H](O)[C@@H](c1ccccc1)O3` is higher in melting point: 162 °C for the first, 178 °C for the second.

First: OC1CCc2c(F)cc(F)cc2C1 (stereo unspecified)
Second: CC(=O)c1ccc2c(c1)CC(NC(=O)C(F)(F)F)C2 (stereo unspecified)
The melting point of the first is lower: 85 °C for the first, 112 to 114 °C for the second.

First: CN(C)CCSc1ccc2nccn2n1
Second: Cc1cn(C(C)(C)C(=O)N(C)C)nc1-c1ccc(Cl)c(Cl)c1
The melting point of the first is lower: 52 to 54 °C for the first, 142 °C for the second.

`CC(C)(C)OC(=O)NC(=N)c1ccc(C(=O)O)cc1` and `CC(C)CNc1cc(C(=O)O)cc(S(N)(=O)=O)c1Sc1ccc(N)cc1` cannot be ordered by melting point: > 200 °C for the first, 250 to 252 °C for the second.

Compared with `N#CSc1ccc(N)c(C(F)(F)F)c1`, `CC1(c2nn(-c3c(Cl)cc(C(F)(F)F)cc3Cl)cc2C#N)CC1(Cl)Cl` (stereo unspecified) is higher in melting point: 52 to 55 °C for the first, 97 to 98.5 °C for the second.

Compared with `CCC(=O)N1C(=O)C(=O)c2cc(Cl)ccc21`, `COc1ccc2c(c1)N(C)C(=O)N(c1ccc(Cl)cc1)S2(=O)=O` is higher in melting point: 160 to 162 °C for the first, 167 to 168 °C for the second.

Compared with `CCCCCCCCCCCCCCCCNc1ccc(C(=O)NC(C)(C)C(=O)O)cc1`, `CCCc1nn(-c2ccc(C(F)(F)F)cn2)cc1CCCCOc1cc(CC(=O)O)ccc1OC` is lower in melting point: 199 to 202 °C for the first, 147 to 148 °C for the second.

First: N#C/C=C1\CCc2cc(Br)c3c(c21)CCO3
Second: COC(=O)NCC1Cc2c(Cl)cc3c(c2O1)CCC3 (stereo unspecified)
The melting point of the first is higher: 200 to 203 °C for the first, 139 to 141 °C for the second.

Compared with `Cc1sc(C(=O)O)c(SC(C)C)c1Br`, `CC(C)CCn1cc(C(=O)c2ccccc2)c(=O)c2cn(C)nc21` is higher in melting point: 132 to 134 °C for the first, 231 to 233 °C for the second.

First: Cc1cc(C)c(Nc2nc(C)ccc2S(=O)(=O)c2ccc(OCc3ccccn3)cc2)c(C)c1
Second: COC(=O)C1=C(C)NC(C)=C(S(=O)(=O)c2ccc(OC)cc2)C1c1ccccc1Cl (stereo unspecified)
The melting point of the first is higher: 182 to 184 °C for the first, 176 to 178 °C for the second.

First: Cc1ccc(C2=NCCc3c(Cl)cccc32)cc1
Second: CC1CC2=C(N3CN(C)N=C3C(c3ccccc3Cl)=NC2)S1=O (stereo unspecified)
The melting point of the first is lower: 82.7 to 83.4 °C for the first, 199 to 200 °C for the second.

First: Nc1c(C(=O)c2cc(Cl)ccn2)[nH]c2cc(Cl)ccc12
Second: O=C(O)COc1cc(Cl)ccc1C(=O)NCc1ccc(Br)cc1
The melting point of the first is higher: 234 to 235 °C for the first, 172 to 173 °C for the second.

Compared with `CC(COc1ccccc1)=C1SC(=O)NC1=O`, `O=C1Nc2ccc(I)cc2C1=NNC(=O)c1cccc(Oc2ccccc2)c1` is higher in melting point: 153 to 155 °C for the first, 283 °C for the second.

Compared with `C=C(C)C(=O)OC1CC(=O)NC1=O` (stereo unspecified), `CCC1(C)CC(=O)C(C(=O)Nc2cccc(C(F)(F)F)c2)C(=O)C1` (stereo unspecified) is lower in melting point: 102 °C for the first, 81 to 82 °C for the second.

Compared with `Fc1ccc(-c2nc(-c3ccccc3)sc2-c2ccncc2)cc1`, `CC(=O)Nc1nc(NC(C)=O)nc(-c2ccc(Oc3ccccc3)cc2)n1` is higher in melting point: 135 to 137 °C for the first, 243 to 245 °C for the second.

First: Cc1noc(CC(N)=O)n1
Second: CCOC(=O)c1c(CN2CCOCC2)nc2ccc(Cl)cc2c1-c1ccccc1
The melting point of the first is lower: 77 to 77.5 °C for the first, 161 to 163 °C for the second.

Compared with `CCC(CC)[C@@H](CO)NS(=O)(=O)c1ccc(Cl)s1`, `CC#CCOc1ccc(S(=O)(=O)C(C(=O)NO)C2CCN(C(C)=O)CC2)cc1` (stereo unspecified) is lower in melting point: 115 to 118 °C for the first, 103 °C for the second.

First: COc1nc2cc(Cl)c(Cl)c(CS(C)(=O)=O)c2nc1OC
Second: CCOC(=O)c1cn2c(cc(OC)c3cc(OC)c(OC)cc32)n1
The melting point of the first is lower: 161 to 163 °C for the first, 195 to 197 °C for the second.

First: COc1ccc2nc(C(=O)NCC(=O)O)c(OCc3ccccc3)cc2c1
Second: COC(=O)Nc1cn2cc(S(=O)c3ccccc3)ccc2n1 (stereo unspecified)
The melting point of the first is lower: 118 °C for the first, 247 to 248 °C for the second.

First: CC(=O)NCC1=C(n2ccccc2=O)c2cc(C(F)(F)F)ccc2OC1(C)C
Second: CC(C)(C)c1ccc(CN2CCC3(CC2)CC(=O)c2ccccc2O3)cc1
The melting point of the first is higher: 174 °C for the first, 149 to 151 °C for the second.

Compared with `CCOC(=O)c1c(-c2ccccc2C)c2cc(C)c(Cl)cc2n(C)c1=O`, `Cc1cc(-c2cc(COS(C)(=O)=O)c(=O)n(Cc3ccc(Cl)cc3)n2)ccc1F` is higher in melting point: 121 to 123 °C for the first, 132 to 133 °C for the second.

First: COc1cc(OCCCO)c(C=CC(=O)c2ccc(S(=O)(=O)Nc3cc(C)on3)cc2)cc1-c1cccs1
Second: Cc1noc(NS(=O)(=O)c2ccccc2-c2ccc(-c3ncco3)cc2CN(C)C(=O)c2ccccc2F)c1C
The melting point of the first is higher: 178 to 182 °C for the first, 127 to 137 °C for the second.

First: CCOC(=O)c1cnc2ccc(C3CCCCCC3)cc2c1Cl
Second: CC(=O)Nc1nc2c(Oc3cc(-c4ccc(C(F)(F)F)cc4NCC4CCCCC4)ncn3)cccc2s1
The melting point of the first is lower: 61 to 62 °C for the first, 232 to 234 °C for the second.

Compared with `O=C(Nc1nccs1)c1c(C(O)CO)nc2c(C(F)(F)F)cccc2c1O` (stereo unspecified), `CC(C)(C)c1cc(C(O)c2ccccc2)cc(C(C)(C)C)c1O` (stereo unspecified) is lower in melting point: 255 °C for the first, 117 to 119 °C for the second.

First: COC(=O)c1ccc(OC)c(C=O)c1
Second: CCOC(=O)C(=CNc1ccc2c(c1)CCC2)C(=O)OCC
The melting point of the first is higher: 98 to 102 °C for the first, 25 to 30 °C for the second.

First: Cc1c(NC(=O)CC(C)(C)C)cc2c(c1C)OC(C)(C)C2c1ccc(CO)cc1 (stereo unspecified)
Second: Cc1ccc2c(c1)c(N1CCN(C(=O)c3ccco3)CC1)c(C#N)c(=O)n2C
The melting point of the first is lower: 162 to 163 °C for the first, 231 °C for the second.

First: O=C(CSc1ccc(C(F)(F)F)cn1)C12CC3CC(CC(C3)C1)C2
Second: NS(=O)(=O)c1c(C(F)F)nsc1OCC(F)(F)F
The melting point of the first is higher: 141 to 142 °C for the first, 102 to 104 °C for the second.

First: CC(=O)c1nn(-c2c(Cl)cc(C(F)(F)F)cc2Cl)c(N)c1S(C)=O (stereo unspecified)
Second: COc1cc2c(cc1OC)CN(CCc1ccc(NC(=O)c3cccc4c(=O)c5cccc(F)c5[nH]c34)c(C)c1)CC2
The melting point of the first is lower: 166 °C for the first, 210 °C for the second.

First: Cc1cccc(NC(=O)NCC(=O)N(CC(=O)N2CCC3(CCCC3)CC2)c2ccccc2)c1
Second: CSCC(=O)[C@H](Cc1ccccc1)NC(=O)[C@H](CC(C)C)NC(=O)CCc1ccccc1
The melting point of the first is higher: 183 °C for the first, 104 to 107 °C for the second.

First: Cn1c([N+](=O)[O-])cnc1-c1nnc2ccc(N3CCOCC3)nn12
Second: COC(=O)Nc1nc2ccc(Sc3ccccc3)cn2c1CN1CCOCC1
The melting point of the first is higher: 240 to 242 °C for the first, 158 to 182 °C for the second.

Compared with `CC1CC(N)=NN1c1nc2ccccc2s1` (stereo unspecified), `N#CC(NCCCO)c1ccc(F)cc1` (stereo unspecified) is lower in melting point: 212 to 215 °C for the first, 69 to 70 °C for the second.

With `O=C(O)CCC(=O)N1CCc2cc(S(=O)(=O)N3CCN(c4ccc(C(=O)O)cc4)CC3)ccc21` the melting point was 255 to 257 °C.
